{
  "source": "paper PMC5487681",
  "about": "“Identification of Antifungal H^+-ATPase Inhibitors with Effect on Plasma Membrane Potential” (Antimicrobial Agents and Chemotherapy, 2017)",
  "key": {"S. cerevisiae Pma1": {"molecular_target": "S. cerevisiae Pma1 (Saccharomyces cerevisiae, UniProt P05030)", "sequence (P05030 whole entry)": "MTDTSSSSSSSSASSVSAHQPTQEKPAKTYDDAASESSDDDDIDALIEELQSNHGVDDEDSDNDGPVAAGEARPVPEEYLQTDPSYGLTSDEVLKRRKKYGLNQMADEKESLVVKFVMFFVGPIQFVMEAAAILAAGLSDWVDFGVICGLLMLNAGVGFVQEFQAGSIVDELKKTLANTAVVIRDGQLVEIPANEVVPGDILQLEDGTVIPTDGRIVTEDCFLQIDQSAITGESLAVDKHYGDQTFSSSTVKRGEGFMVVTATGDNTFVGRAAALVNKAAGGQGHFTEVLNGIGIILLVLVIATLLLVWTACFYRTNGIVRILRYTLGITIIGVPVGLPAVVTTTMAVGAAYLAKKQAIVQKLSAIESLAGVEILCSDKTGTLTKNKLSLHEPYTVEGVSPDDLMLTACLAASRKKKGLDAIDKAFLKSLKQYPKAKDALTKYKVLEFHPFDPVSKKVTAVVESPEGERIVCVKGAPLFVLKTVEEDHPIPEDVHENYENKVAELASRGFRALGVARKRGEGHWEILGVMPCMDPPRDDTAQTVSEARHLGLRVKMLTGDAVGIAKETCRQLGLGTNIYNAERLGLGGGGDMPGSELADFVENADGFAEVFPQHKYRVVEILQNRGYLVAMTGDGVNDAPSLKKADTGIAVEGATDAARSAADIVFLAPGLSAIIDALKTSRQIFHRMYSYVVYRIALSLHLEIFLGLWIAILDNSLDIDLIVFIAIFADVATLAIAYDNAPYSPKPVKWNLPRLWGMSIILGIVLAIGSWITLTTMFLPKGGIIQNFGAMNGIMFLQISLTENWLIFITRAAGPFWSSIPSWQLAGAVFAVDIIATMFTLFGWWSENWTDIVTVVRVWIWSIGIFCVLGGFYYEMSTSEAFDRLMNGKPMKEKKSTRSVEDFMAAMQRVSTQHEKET", "details": "read-out: IC50 Pma1, ATP hydrolysis assay; cited from earlier work"}, "C. albicans": {"system": "C. albicans", "details": "read-out: IC50 for C. albicans, previously reported value; cited from earlier work"}, "S. cerevisiae cells": {"system": "S. cerevisiae cells", "test": "Membrane potential and integrity assay, DiBAC4(3)/PI image cytometry", "assay_type": "cell-based, Saccharomyces cerevisiae", "details": "for PI signal (membrane integrity), in words: compound 14 after 5 min, BM2 within 5 min; for PI signal (membrane integrity), in words / DiBAC4(3) signal (membrane depolarization), in words: compound 17 15 µM, 30 min (Fig. S1); for DiBAC4(3) signal (membrane depolarization), in words: compound 14 after 5 min of exposure", "description": "Cells were transferred from frozen stocks to 3 ml of YPD medium and grown overnight at 30°C and 150 rpm. The culture was diluted to an OD600 of 0.15 and grown for 3 to 4 h at 30°C and 150 rpm to an OD600 of 0.5 to 0.7. The cells were pelleted by centrifugation at 2,000 × g for 2 min and washed in buffer A (100 mM MOPS and 1 mM KCl adjusted to pH 7.0 with Trizma base). The washing procedure was repeated, and the cells were resuspended in buffer A to an OD600 of 0.2. Fifty microliters of buffer A containing 3.3 μg/ml propidium iodide (PI; catalog number P1304MP; Thermo Fisher Scientific) and 1 μg/ml DiBAC4(3) (catalog number D8189; Sigma-Aldrich) was mixed with 50 μl the S. cerevisiae cell suspension in buffer A and transferred to a 96-well plate with 1 μl of inhibitor in DMSO, and the components were mixed.\nApproximately 30 μl sample was transferred to an A2 glass slide (ChemoMetec, Allerod, Denmark), and the slide was incubated at 30°C before the cells were counted on a NucleoCounter NC-3000 cytometer (ChemoMetec). Five thousand cells were counted per experiment with an exposure time of 1,000 ms. A dark field was used as the masking channel to select the yeast cells. The DiBAC4(3) channel (excitation, 530 nm; emission, 675/75 nm) and the PI channel (excitation, 630 nm; emission, 740/60 nm) were used to measure the membrane potential and membrane integrity, respectively. To account for the fluorescent spillover from the PI channel to the DiBAC4(3) channel, 15% compensation was applied. In all experiments, 1.9% compensation was used to compensate for the DiBAC4(3)-to-PI spillover. The results were analyzed using NucleoView software (ChemoMetec). Only cells with a pixel size of 10 to 40 were included in the analysis, thus avoiding analysis of noncell artifacts. Carbonyl cyanide m-chlorophenylhydrazone (CCCP) was used as a positive control for decreased membrane potential, and lysis buffer was used to validate lost membrane integrity."}, "[1]": {"details": "30 min of exposure, 15 μM (Fig. 4C)"}},
  "note": "Residues, ends and D or L forms follow the SMILES beside them.",
  "data": [
    {"molecule": "N=C(N)NCCC[C@@H](N)C(=O)N[C@H](CCCNC(=N)N)C(=O)N[C@H](CCCNC(=N)N)C(=O)N[C@H](Cc1ccccc1)C(=O)N[C@H](Cc1c[nH]c2ccccc12)C(=O)N[C@H](Cc1c[nH]c2ccccc12)C(=O)N[C@H](Cc1ccccc1)C(=O)N[C@H](CCCNC(=N)N)C(=O)N[C@H](CCCNC(=N)N)C(=O)N[C@H](CCCNC(=N)N)C(N)=O", "note": "[BM2, reference compound] (HELM PEPTIDE1{[dR].[dR].[dR].[dF].[dW].[dW].[dF].[dR].[dR].[dR].[am]}$$$$V2.0)", "values": [
      {"measurement": "IC50", "setting": "S. cerevisiae Pma1", "value": 0.5, "unit": "µM"}
    ]},
    {"molecule": "O=c1c2ccccc2[se]n1-c1ccccc1", "note": "[Ebselen, reference compound]", "values": [
      {"measurement": "IC50", "setting": "C. albicans", "value": 14, "unit": "µM"}
    ]},
    {"molecule": "CCCCc1nc2sc3c(NCCCN(C)C)ncnc3c2c2c1CCCC2", "note": "[Compound 14]", "values": [
      {"measurement": "Cells DiBAC4(3) positive and PI negative", "setting": "S. cerevisiae cells; [1]", "value": 44, "unit": "%"},
      {"measurement": "Cells PI positive but DiBAC4(3) negative", "setting": "S. cerevisiae cells; [1]", "value": 0.7, "unit": "%"},
      {"measurement": "Cells both PI and DiBAC4(3) negative", "setting": "S. cerevisiae cells; [1]", "value": 16, "unit": "%"},
      {"measurement": "Cells both PI and DiBAC4(3) positive", "setting": "S. cerevisiae cells; [1]", "value": 39, "unit": "%"},
      {"measurement": "PI signal (membrane integrity), in words", "setting": "S. cerevisiae cells", "value": "minimal increase"},
      {"measurement": "DiBAC4(3) signal (membrane depolarization), in words", "setting": "S. cerevisiae cells", "value": "elevated"}
    ]},
    {"molecule": "CCc1nc2sc3c(NCCCN(C)C)ncnc3c2c2c1CCCC2", "note": "[Compound 17]", "values": [
      {"measurement": "PI signal (membrane integrity), in words", "setting": "S. cerevisiae cells", "value": "not significantly increased"},
      {"measurement": "DiBAC4(3) signal (membrane depolarization), in words", "setting": "S. cerevisiae cells", "value": "did not increase"}
    ]}
  ]
}
